Test results from BindingDB's records for doi:10.1021/jm00164a044 (Niddk, 1990).

Assay: Muscarinic acetylcholine receptor binding affinity was determined using [3H]NMS for NG108-15 neuroblastoma cells

Row | Compound | Ki
1 | CC(=O)N(C)CC#CCN1CCCC1 | 4500 nM
2 | CN(CC#CCN1CCCC1)C(=O)CCCCCCN | 3100 nM
3 | CN(CC#CCN1CCCC1)C(=O)CCCCCCCN | 700 nM
4 | CN(CC#CCN1CCCC1)C(=O)CCCCCCCNC(=O)OC(C)(C)C | 1900 nM
